Measurements: article PMC3691235, “Discovery of a Novel Dual Fungal CYP51/Human 5-Lipoxygenase Inhibitor: Implications for Anti-Fungal Therapy” (PLoS ONE, 2013)

Experiments:
[1] = target: T1, Human reticulocyte 15-lipoxygenase-1 (15-LOX-1) (Homo sapiens, UniProt P16050); test: Lipoxygenase UV-based inhibitor assay, 15-LOX-1; assay type: biochemical; details: 10 µM LA, pH 7.5
T1 construct: His6 (N); made in house
T1 sequence (P16050 1-662): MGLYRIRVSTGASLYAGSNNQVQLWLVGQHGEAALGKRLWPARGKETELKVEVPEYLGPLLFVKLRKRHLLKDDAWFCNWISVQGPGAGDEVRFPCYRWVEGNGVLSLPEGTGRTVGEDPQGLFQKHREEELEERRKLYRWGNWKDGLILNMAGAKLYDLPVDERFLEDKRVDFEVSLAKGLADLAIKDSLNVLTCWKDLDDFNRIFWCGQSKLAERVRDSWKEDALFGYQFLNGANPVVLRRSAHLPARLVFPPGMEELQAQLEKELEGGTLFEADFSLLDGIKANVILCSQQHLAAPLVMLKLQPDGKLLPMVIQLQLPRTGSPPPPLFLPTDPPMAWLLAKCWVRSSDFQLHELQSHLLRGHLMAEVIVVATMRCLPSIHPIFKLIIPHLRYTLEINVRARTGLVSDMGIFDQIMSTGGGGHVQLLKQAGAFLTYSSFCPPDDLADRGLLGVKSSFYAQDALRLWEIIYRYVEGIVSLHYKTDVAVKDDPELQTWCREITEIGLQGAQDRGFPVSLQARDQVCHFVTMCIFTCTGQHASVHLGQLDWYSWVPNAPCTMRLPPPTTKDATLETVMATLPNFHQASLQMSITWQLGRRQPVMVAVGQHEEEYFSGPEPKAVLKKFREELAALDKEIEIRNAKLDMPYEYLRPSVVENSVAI
Procedure: (§1) Human leukocyte 5-lipoxygenase was expressed as a non-tagged protein and used as a crude ammonium sulfate protein fraction, as published previously.
(§2) Inhibitor potencies were evaluated through use of the standard UV-based inhibitor assay. The initial rates were determined by following the formation of the conjugated diene product at 234 nm (ε = 25,000 M^−1 cm^−1) with a Perkin-Elmer Lambda 40 UV/Vis spectrophotometer at one substrate concentration and varying inhibitor concentrations. All reactions were 2 mL in volume and constantly stirred using a magnetic stir bar at room temperature (23°C), with the enzyme specific buffer conditions outlined in Table 1. The substrate used for the various isozymes was arachidonic acid (AA) for 5-LOX, 12-LOX, and 15-LOX-2 and linoleic acid (LA) for 15-LOX-1, where concentrations were quantitatively determined by allowing the enzymatic reaction to go to completion. IC50 values were obtained by determining the initial rate at various inhibitor concentrations and plotting them against inhibitor concentration, followed by a hyperbolic saturation curve fit. The data used for the saturation curves were performed in duplicate or triplicate, depending on the quality of the data. […] Inhibitors were stored at −20°C in DMSO. […] The solvent isotope effect of the inhibitor IC50 was investigated utilizing the same conditions and methods as stated above. The pH of the buffered D2O was determined as reported previously.

5-LOX = target: T2, 5-LOX (Homo sapiens, UniProt P09917); test: Pseudoperoxidase activity assay; assay type: biochemical; details: 10 µM inhibitor, 10 µM 13-HPODE, positive = loss of greater than 40% of product absorption at 234 nm
T2 construct: made in house
T2 sequence (P09917 1-674): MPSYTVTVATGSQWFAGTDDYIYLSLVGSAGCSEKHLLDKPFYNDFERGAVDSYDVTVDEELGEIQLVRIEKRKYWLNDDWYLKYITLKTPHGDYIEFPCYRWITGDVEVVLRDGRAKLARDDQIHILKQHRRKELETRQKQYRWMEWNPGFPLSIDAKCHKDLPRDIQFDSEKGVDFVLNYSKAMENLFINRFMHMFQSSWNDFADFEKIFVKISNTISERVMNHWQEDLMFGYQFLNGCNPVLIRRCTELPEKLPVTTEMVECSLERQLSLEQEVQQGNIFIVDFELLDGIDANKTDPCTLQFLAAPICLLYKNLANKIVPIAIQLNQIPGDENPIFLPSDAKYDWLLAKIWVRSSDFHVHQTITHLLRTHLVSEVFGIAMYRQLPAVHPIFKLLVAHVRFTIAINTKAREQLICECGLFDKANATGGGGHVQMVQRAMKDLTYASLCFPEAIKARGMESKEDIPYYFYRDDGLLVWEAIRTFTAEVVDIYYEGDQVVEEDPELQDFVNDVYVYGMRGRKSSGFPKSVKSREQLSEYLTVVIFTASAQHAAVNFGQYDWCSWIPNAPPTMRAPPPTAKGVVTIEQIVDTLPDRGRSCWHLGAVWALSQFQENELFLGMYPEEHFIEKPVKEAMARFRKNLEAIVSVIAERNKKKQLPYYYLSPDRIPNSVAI
Procedure: The reductive properties of the inhibitors were determined by monitoring the pseudoperoxidase activity of lipoxygenase in the presence of the inhibitor and 13-(S)-hydroperoxyoctadecadienoic acid (13-HPODE). Activity is monitored by direct measurement of the product degradation following the decrease of absorbance at 234 nm using a Perkin-Elmer Lambda 40 UV/Vis spectrometer (50 mM Sodium Phosphate (pH 7.4), 0.3 mM CaCl2, 0.1 mM EDTA, 0.01% Triton X100, 10 µM 13-HPODE). All reactions were performed in 2 mL of buffer and constantly stirred with a rotating stir bar (23°C). Reaction was initiated by addition of 10 µM inhibitor (a 1 to 1 ratio to 13-HPODE), and a positive result for activity reflected a loss of greater than 40% of product absorption at 234 nm.

[2] = target: T3, human platelet 12-lipoxygenase (12-LOX) (Homo sapiens, UniProt P18054); test: Lipoxygenase UV-based inhibitor assay, 12-LOX; assay type: biochemical; details: 10 µM AA, pH 8.0
T3 construct: His6 (N); made in house
T3 sequence (P18054 1-663): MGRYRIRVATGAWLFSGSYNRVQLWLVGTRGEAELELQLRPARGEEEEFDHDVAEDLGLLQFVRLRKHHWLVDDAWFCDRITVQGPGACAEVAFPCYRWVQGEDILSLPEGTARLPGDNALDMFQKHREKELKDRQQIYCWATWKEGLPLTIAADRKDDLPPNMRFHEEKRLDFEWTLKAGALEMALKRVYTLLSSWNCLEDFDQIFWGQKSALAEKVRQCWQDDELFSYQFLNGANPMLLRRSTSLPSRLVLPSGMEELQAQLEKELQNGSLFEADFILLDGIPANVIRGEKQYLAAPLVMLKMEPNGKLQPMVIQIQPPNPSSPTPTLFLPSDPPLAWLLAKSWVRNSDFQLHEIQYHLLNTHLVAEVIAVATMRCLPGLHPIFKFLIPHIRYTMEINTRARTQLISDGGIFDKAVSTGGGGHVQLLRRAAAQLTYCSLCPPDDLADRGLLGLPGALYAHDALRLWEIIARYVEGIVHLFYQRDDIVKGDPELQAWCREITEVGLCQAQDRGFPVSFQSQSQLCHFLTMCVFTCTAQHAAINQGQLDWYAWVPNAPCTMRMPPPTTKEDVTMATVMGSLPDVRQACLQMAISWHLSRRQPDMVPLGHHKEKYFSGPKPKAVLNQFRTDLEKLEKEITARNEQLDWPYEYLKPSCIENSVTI
Procedure: as §1, §2

[3] = test system: LTB4 synthesis in whole human blood; test: Human blood LTB4 inhibition assay; assay type: cell-based; details: Homo sapiens, compounds at 10 µM, calcium ionophore stimulated, ELISA; error in parentheses
Procedure: Whole human blood was obtained from healthy volunteers from within the Student Health Center. These studies were approved by the UCSC Institutional Review Board (IRB) and informed consent was obtained from all donors before blood draw. The whole blood was dispensed in 150 µL samples followed by addition of inhibitor or control (vehicle, DMSO), and incubated for 15 min at 37°C. The mixture was then stimulated by introduction of the calcium ionophore, […], (freshly diluted from a 50 mM DMSO stock to 1.5 mM in Hanks balanced salt solution), and incubated for 30 min at 37°C. Samples were then centrifuged at 1,500 rpm (300 g) for 10 min at 4°C and the supernatant diluted between 20 and 50-fold (batch dependent) for LTB4 detection, using an ELISA detection kit (Cayman Chemicals Inc.).

[4] = target: T4, human prostate epithelial 15-lipoxygenase-2 (15-LOX-2) (Homo sapiens, UniProt O15296); test: Lipoxygenase UV-based inhibitor assay, 15-LOX-2; assay type: biochemical; details: 30 µM AA, pH 7.5
T4 construct: His6 (N); made in house
T4 sequence (O15296 1-676): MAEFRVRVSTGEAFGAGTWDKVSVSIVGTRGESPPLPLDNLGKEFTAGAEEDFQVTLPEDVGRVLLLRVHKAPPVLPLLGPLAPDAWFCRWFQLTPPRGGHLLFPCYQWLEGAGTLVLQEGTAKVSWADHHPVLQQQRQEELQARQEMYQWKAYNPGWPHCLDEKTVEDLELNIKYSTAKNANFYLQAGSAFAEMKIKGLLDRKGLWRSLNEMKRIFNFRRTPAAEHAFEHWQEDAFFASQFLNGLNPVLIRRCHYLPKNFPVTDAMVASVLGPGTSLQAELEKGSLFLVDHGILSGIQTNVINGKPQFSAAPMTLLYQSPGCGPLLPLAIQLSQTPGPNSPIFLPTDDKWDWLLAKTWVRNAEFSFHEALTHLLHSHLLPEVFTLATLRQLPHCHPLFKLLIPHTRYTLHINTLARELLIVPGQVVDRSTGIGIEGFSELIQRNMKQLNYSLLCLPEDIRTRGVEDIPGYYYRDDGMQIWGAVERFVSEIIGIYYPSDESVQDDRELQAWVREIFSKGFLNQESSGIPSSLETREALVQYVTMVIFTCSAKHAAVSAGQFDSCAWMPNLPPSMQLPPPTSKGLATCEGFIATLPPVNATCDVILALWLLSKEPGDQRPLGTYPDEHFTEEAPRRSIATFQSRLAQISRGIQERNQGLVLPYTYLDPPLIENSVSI
Procedure: as §1, §2

[5] = target: T5, Human leukocyte 5-lipoxygenase (Homo sapiens, UniProt P09917); test: Lipoxygenase UV-based inhibitor assay, 5-LOX; assay type: biochemical; details: for IC50: UV-based assay, 10 µM AA, pH 7.3, crude enzyme, error = SD, read-out: 5-LOX IC50
T5 construct: made in house
T5 sequence (P09917 1-674): T2 sequence (P09917 1-674)
Procedure: as §1, §2

[6] = target: T6, Homo sapiens CYP51 (HsCYP51) (Homo sapiens, UniProt Q16850); design: method as in PMID 20149798; details: ref [40]; read-out: Kd with HsCYP51, previously reported; cited from earlier work
T6 construct: made in house; host or cells: E. coli
T6 sequence (Q16850 1-509): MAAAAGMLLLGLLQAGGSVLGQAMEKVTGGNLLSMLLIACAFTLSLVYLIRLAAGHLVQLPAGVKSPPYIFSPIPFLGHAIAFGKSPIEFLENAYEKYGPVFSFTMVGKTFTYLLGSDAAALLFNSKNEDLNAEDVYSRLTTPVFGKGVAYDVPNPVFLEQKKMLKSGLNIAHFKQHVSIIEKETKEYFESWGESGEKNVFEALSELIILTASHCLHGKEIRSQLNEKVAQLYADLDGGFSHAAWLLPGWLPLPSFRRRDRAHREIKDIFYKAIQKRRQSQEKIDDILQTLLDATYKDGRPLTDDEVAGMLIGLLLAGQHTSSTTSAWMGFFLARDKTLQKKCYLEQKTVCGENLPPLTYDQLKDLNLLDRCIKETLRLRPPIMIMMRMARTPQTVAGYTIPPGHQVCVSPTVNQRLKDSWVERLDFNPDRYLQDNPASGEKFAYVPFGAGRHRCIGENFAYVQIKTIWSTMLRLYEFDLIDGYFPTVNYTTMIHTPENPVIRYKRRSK

| Reductive activity (pseudoperoxidase activity) (5-LOX) | IC50 [5] [nM] | Compound | other results |
| --- | --- | --- | --- |
|  | 600 | Cc1ccc(CNc2ccc(N3CCCCC3)cc2)cc1 [Compound 15] | IC50 [1]: > 150000 nM; inhibition at 10 µM [3]: < 10%; IC50 [4]: > 50000 nM; IC50 [2]: > 50000 nM |
|  | 2600 | CC(=O)N1CCN(c2ccc(NCc3ccc(-c4ccc(Br)cc4)o3)cc2)CC1 [Compound 12] |  |
|  | > 150000 | CC(C)(C)OC(=O)N1CCN(c2ccc(NCc3nnc(-c4ccc(C#N)cc4)o3)cc2)CC1 [Compound 10] | decrease in 5-LOX potency ([5]; relative to the other analogues of Figure 3): greater than 10 fold |
|  | 1500 | CC(C)(C)OC(=O)N1CCN(c2ccc(NCc3ncc(-c4ccc(C#N)cc4)o3)cc2)CC1 [Compound 9] |  |
|  | 1100 | CC(=O)N1CCN(c2ccc(NCc3ccc(C)cc3)cc2)CC1 [Compound 11] |  |

Second part, the compound before the results:

| Compound | Reductive activity (pseudoperoxidase activity) (5-LOX) | IC50 [5] [nM] | other results |
| --- | --- | --- | --- |
| CC(c1cc2ccccc2s1)N(O)C(N)=O (stereo not shown) [zileuton, reference compound] | reductive |  | IC50 [1]: > 50000 nM; Reductive activity (pseudoperoxidase activity) (5-LOX; listed as Zilueton): Yes; IC50 [2]: > 150000 nM |
| CC(C)(C)OC(=O)N1CCN(c2cnc(NCc3ccc(-c4ccc(C#N)cc4)o3)nc2)CC1 [Compound 5] | No | > 150000 | 5-LOX inhibition, in words [5]: complete loss of inhibition |
| CC(C)(C)OC(=O)N1CCN(c2ccc(OCc3ccc(-c4ccc(C#N)cc4)o3)cc2)CC1 [Compound 3] | No | > 150000 | 5-LOX inhibition, in words [5]: complete loss of inhibition |
| Clc1ccc(COC(Cn2ccnc2)c2ccc(Cl)cc2Cl)c(Cl)c1 (stereo not shown) [miconazole] |  |  | Kd [6]: < 100 nM |
| CC(C)(C)OC(=O)N1CCN(c2ccc(NCc3cnc(-c4ccc(C#N)cc4)o3)cc2)CC1 [Compound 8] |  | 100 |  |
| Clc1ccc(COC(Cn2ccnc2)c2ccc(Cl)cc2Cl)cc1 (stereo not shown) [econazole] |  |  | Kd [6]: < 100 nM |
| CC(C)(C)OC(=O)N1CCC(c2ccc(NCc3ccc(-c4ccc(C#N)cc4)o3)cc2)CC1 [Compound 2] | No | > 150000 | 5-LOX inhibition, in words [5]: complete loss of inhibition |
| CC(C)(C)OC(=O)N1CCN(c2ncc(NCc3ccc(-c4ccc(C#N)cc4)o3)cn2)CC1 [Compound 4] | No | > 150000 | 5-LOX inhibition, in words [5]: complete loss of inhibition |
| CN(Cc1ccc(-c2ccc(C#N)cc2)o1)c1ccc(N2CCN(C(=O)OC(C)(C)C)CC2)cc1 [Compound 7] | Yes | 2700 |  |
